Assay results published in patent US7709526B2, “Use of cyclolignans and new cyclolignans” (Biovitrum AB, priority 2001, dated 2010).

What was measured:
[1] = target: insulin receptor tyrosine kinase (Homo sapiens, UniProt P06213); test: Interference with insulin receptor tyrosine kinase; type: cell-based
IGF-1R = IGF-1R (Homo sapiens, UniProt P08069); test: IGF-1R phosphorylation/autophosphorylation in intact FM55 melanoma cells (immunoprecipitation, Western blotting, OD); type: cell-based; set-up: The cells were then isolated and subjected to immuno-precipitation of the IGF-1R; endogenous in cells; host or cells: FM55 melanoma cells; conditions: for Level of IGF-1R phosphorylation in intact cells: OD, control cells = 100%
Description: The isolated cells were lyzed in 10 ml ice-cold PBSTDS containing protease inhibitors (Carlberg, M., et al., J Biol Chem 271:17453-17462, 1996). 50 μl protein A or G agarose was added in 1 ml sample and incubated for 15 min at 4° C. on an orbital shaker. After centrifugation for 10 min at 10,000 r/min at 4° C. the supernatant was saved. The protein content was determined by a dye-binding assay with a reagent purchased from Bio-Rad. Bovine serum albumin was used as a standard. 15 μl Protein G Plus agarose and 5 μl anti-IGF-1R were added. After a 3 h incubation at 4° C. on an orbital shaker the precipitate was collected by pulse centrifugation in a micro centrifuge at 14,000×g for 10 s. The supernatant was discarded and the pellet was washed 3 times with PBSTDS.
Protein samples were solved in a 2×-sample buffer containing Laemmli buffer and 0.5% […] and boiled for 5 min at 96° C. Samples were separated by SDS-PAGE with a 4% stacking gel and 7.5% separation gel. Molecular weight markers (Bio Rad, Sweden) were run simultaneously in all experiments.
Following SDS-PAGE the proteins were transferred overnight to nitro-cellulose membranes (Hybond, Amersham, UK) and then blocked for 1 h at room temperature in a solution of 4% skimmed milk powder and 0.02% Tween 20 in PBS, pH 7.5. Incubations with the primary antibodies were performed for 1 h at room temperature, followed by 3 washes with PBS with Tween and incubation with the second antibody for 1 h room temperature. After another 3 washes the membranes were incubated with Streptavidin-labelled horseradish peroxidase for 30 min and then detected using Amersham ECL system (Amersham, UK) The films were scanned by Fluor-S (BioRad).
Melanoma cells (line FM55) were seeded in 6-cm dishes, at a concentration of 10,000 cells/cm^2 in Minimal Essential Medium supplemented with 10% fetal calf serum (FCS). […] Treatment with 0 μM represents untreated controls. The cells were then isolated and subjected to immuno-precipitation of the IGF-1R. The immunoprecipitates, containing purified IGF-1R, were fractionated by gel electrophoresis. Phosphorylation of IGF-1R was detected by an anti-phosphotyrosine antibody using Western blotting. The obtained signals represent phosphorylated IGF-1R and the intensity of signals represents amounts of phosphorylated IGF-1R. Details of the methods used are described above. The intensities are quantified by a scanner, which measures the optical density (OD) of the signals. For the control cells the OD is set at 100%. The blank (OD 0%) represents the background. The results given in Table 1 below are mean values of 3 experiments.
FM 55 melanoma cells were cultured in the same way as described in Experiment 1. When reaching a density of 65,000 cells/cm^2 in the dishes, they were treated for 1 h with 0.05 μM podophyllotoxin, deoxypodophyllotoxin, acetylpodophyllotoxin, epipodophyllotoxin, 4′-demethyl-podophyllotoxin and podophyllotoxone. The cells were then harvested for assay and quantification of IGF-1R autophosphorylation as described above. The values shown in Table 2 represent means of 3 experiments.

[2] = test system: HL60 acute myeloid leukemia cells; test: Viability of leukemia cells, HL60; type: cell-based, human; conditions: Homo sapiens, HL-60; HL60, 72 h; read-out: IC50 for viability of leukemia cell lines
Description: (§1) The human chronic myeloid leukemia K562/S and K562/Vcr30 lines and the acute myeloid leukemia cell lines HL60/0 and HL60/Nov were obtained from ATCC. The K562/S and HL60/0 are wild type (non-resistant) cells, whereas K562/Vcr30 and HL60/Nov are cytostatic-resistant sublines. All leukemia cell lines were cultured in RPMI 1640 medium supplemented with 10% fetal bovine serum and with 2 mM glutamine, 1% benzyl-penicillin and streptomycin. The cells were grown in tissue culture flasks maintained at 95% air/5% CO2 atmosphere at 37° C. in a humidified incubator. For the experiments 25,000 cells were cultured in 60-mm plastic dishes or 96-well plastic plates. The experiments on leukemia cells were performed in collaboration with Associate professor Sigurd Vitols, Department of Pharmacology, Karolinska Hospital (Stockholm, Sweden).
(§2) Cell proliferation kit II (Roche Inc.) is based on calorimetric change of the yellow tetrazolium salt XTT in orange formazan dye by the respiratory chain of viable cells (Roehm, N W, et al., J Immunol Methods 142:257-265, 1991). Cells seeded at a concentration of 5000/well in 100 μl medium in a 96-well plate were treated with different drugs in the given concentration. After 24 or 48 h the cells were incubated, according to the manufacturer's protocol, with XTT labelling mixture. After 4 h the formazan dye is quantified using a scanning multiwell spectrophotometer with a 495-nm filter. The absorbance is directly correlated with number of viable cells. The standard absorbance curve was drawn by means of untreated cells seeded at a concentration of from 1000 to 10 000 cells/well with an increasing rate of 1000 cells/well. All standards and experiments were performed in triplicates.
(§3) The leukemia cell lines K562/S, K562/Vcr 30, HL60/0 and HL60/Nov were proven to express the IGF-1R. This was assayed by Western blotting analysis, as described in Methods and Experiment 1 and 2. The 4 leukemia cell lines were seeded in 96-well plates (medium volume in a well was 100 μl), in RPMI40 medium supplemented with fetal calf serum. After 24 h podophyllotoxin, deoxypodophyllotoxin and other derivatives were added at different concentrations for 72 h. Cell viability was then assayed (see above). IC50 values for each inhibitor and cell lines are shown below (Table 5). The results are based on 3 different experiments.

microtubules = conditions: cell free systems; cited from earlier work
[3] = test system: K562/Vcr30 chronic myeloid leukemia cells (cytostatic-resistant); test: Viability of leukemia cells, K562/Vcr30; type: cell-based, human; conditions: Homo sapiens; K562/Vcr30, 72 h; read-out: IC50 for viability of leukemia cell lines
Description: as §1, §2, §3

malignant cells = test: Cell death in malignant cells; type: cell-based

Chain of IGF-1R (P08069 31-1367): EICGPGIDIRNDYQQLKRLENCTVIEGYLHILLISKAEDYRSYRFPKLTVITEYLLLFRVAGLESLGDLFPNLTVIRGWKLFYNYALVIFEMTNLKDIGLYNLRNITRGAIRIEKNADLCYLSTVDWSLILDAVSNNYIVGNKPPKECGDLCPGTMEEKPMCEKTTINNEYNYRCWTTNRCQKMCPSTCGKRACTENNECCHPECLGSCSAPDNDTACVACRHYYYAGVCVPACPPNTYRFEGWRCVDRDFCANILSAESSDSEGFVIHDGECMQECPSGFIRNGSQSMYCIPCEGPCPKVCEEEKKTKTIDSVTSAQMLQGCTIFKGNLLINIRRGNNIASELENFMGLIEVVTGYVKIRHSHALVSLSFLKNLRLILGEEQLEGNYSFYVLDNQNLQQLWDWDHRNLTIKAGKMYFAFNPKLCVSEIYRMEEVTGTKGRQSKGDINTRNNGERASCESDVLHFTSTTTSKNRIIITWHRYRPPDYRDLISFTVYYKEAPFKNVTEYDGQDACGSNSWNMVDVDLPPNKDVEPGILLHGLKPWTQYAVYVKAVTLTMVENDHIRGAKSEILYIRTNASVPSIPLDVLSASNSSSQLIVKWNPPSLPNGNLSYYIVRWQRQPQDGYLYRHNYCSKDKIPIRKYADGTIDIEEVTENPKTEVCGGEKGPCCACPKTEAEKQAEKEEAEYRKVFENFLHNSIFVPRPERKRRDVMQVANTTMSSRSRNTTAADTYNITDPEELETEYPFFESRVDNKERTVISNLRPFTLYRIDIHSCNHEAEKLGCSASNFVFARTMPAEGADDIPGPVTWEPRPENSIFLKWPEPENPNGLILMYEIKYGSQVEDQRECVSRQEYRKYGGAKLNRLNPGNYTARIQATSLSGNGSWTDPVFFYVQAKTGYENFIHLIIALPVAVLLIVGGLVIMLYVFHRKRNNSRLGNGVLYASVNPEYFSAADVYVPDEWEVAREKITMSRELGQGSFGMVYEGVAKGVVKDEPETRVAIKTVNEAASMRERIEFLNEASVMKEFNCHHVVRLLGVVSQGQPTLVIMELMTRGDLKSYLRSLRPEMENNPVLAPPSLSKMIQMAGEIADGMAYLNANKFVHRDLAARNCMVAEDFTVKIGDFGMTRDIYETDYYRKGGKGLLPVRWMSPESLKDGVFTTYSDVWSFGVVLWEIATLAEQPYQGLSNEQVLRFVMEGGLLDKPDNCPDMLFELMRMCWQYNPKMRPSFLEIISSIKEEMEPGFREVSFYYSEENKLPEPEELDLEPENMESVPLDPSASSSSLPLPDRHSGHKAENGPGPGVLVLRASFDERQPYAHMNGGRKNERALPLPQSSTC
Chain of insulin receptor tyrosine kinase (P06213 28-1382): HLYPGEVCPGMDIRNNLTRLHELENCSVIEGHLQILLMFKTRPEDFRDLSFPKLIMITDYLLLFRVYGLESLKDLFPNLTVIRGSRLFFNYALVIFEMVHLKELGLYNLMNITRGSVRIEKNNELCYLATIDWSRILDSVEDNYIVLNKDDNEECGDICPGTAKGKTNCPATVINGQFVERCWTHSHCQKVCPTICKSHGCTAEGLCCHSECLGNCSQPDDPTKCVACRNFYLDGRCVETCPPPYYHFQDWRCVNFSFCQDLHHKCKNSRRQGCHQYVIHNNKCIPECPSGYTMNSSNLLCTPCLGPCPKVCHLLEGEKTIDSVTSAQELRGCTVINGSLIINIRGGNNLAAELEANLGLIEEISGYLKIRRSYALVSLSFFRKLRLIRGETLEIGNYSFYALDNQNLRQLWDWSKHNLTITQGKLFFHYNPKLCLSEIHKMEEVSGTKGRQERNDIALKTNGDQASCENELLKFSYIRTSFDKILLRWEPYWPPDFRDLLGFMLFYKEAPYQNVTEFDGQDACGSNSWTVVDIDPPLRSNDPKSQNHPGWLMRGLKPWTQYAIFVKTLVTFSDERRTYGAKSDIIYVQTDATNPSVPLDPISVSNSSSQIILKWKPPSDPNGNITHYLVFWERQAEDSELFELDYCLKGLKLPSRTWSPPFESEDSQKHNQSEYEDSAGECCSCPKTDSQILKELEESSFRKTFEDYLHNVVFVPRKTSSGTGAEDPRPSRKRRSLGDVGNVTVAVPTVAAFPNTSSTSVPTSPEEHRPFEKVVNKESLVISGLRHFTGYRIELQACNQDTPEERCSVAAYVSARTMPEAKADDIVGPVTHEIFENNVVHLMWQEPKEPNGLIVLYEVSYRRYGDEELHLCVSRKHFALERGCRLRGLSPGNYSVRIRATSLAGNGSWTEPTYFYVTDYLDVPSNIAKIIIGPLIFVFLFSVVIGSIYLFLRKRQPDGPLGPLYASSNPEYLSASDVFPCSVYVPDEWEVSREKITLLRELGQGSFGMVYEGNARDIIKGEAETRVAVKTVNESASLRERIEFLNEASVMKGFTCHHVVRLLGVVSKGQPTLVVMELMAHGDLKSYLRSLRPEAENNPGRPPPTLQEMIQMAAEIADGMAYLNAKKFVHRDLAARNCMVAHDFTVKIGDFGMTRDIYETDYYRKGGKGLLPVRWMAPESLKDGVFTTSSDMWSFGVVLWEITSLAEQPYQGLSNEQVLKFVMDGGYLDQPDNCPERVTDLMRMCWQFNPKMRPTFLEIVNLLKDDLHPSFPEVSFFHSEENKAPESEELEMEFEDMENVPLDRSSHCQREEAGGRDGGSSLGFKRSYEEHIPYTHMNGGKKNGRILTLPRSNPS

SMILES: COc1cc([C@@H]2c3cc4c(cc3[C@H](O)[C@H]3COC(=O)[C@H]23)OCO4)cc(OC)c1OC [Podophyllotoxin, podophyllotoxin]
- interference with the insulin receptor tyrosine kinase [1]: do not interfere
- inhibition of IGF-1R phosphorylation (in words) (IGF-1R; FM55 cells, 0.05 μM, 1 h): potent inhibitors
- Inhibitory effect on IGF-1R autophosphorylation in intact cells in relation to podophyllotoxin, Relative potency (IGF-1R; FM55 cells, 0.05 μM, 1 h, podophyllotoxin = 1, mean of 3): 1
- Level of IGF-1R phosphorylation in intact cells (IGF-1R; FM55 cells, 1 μM, 1 h, mean of 3): 8%
- Level of IGF-1R phosphorylation in intact cells (IGF-1R; FM55 cells, 15 μM, 1 h, mean of 3): 4%
- Level of IGF-1R phosphorylation in intact cells (IGF-1R; FM55 cells, 60 μM, 1 h, mean of 3): 2%
- effect on IGF-1R phosphorylation (in words) (IGF-1R; FM55 cells, 1, 15, 60 μM, genistein statement at 60 μM): almost completely blocks
- concentration sufficient to inactivate the IGF-1R, fold lower than for the anti-microtubule effect (IGF-1R; compared to anti-microtubule effect): 100 fold
- IC50 [2]: 3 nM
- effect on microtubules (microtubules): required μM concentrations
- IC50 [3]: 7 nM
- cell death in malignant cells (in words) (malignant cells): extensive cell death
